Patent US6646005B1, “Method of treating hair loss using sulfonyl thyromimetic compounds” (The University of Texas Southwestern Medical Center, priority 1999, dated 2003)

System: male Sprague Dawley rats
Test: Cardiotoxicity Assay (heart-to-body weight ratio)
Assay type: in vivo, rat
Details: 250 μg per kg subcutaneously once daily for 28 days, hearts weighed day 30
Excerpt: The cardiotoxicity assay measures the potential of a test compound to adversely affect the cardiovascular system. As thyroid hormone (T3) damages the cardiovascular system, the heart enlarges. See, e.g., Gomberg-Maitland et al., “Thyroid hormone and Cardiovascular Disease”, American Heart Journal, Vol. 135(2), pp. 187-196 (1998); Klein and Ojamaa, “Thyroid Hormone and the Cardiovascular System”, Current Opinion in Endocrinology and Diabetes, Vol. 4, pp.341-346 (1997); and Klemperer et al., “Thyroid Hormone Therapy and Cardiovascular Disease”, Progress in Cardiovascular Diseases, Vol. 37 (4), pp. 329-336 (1996). This increases the weight of the heart relative to whole body weight. The cardiotoxicity assay herein below is used to test compounds for potentially adverse cardiac effects by measuring their effect on the heart-to-body weight ratio.
Two groups each of six male Sprague Dawley rats (Harlan Sprague Dawley, Inc., Indianapolis, Ind.) (each weighing from approximately 220 grams to 235 grams) are utilized. The first group is a vehicle control group and the second group is a test compound group. The length of the assay is 30 days, with treatment of vehicle or test compound in vehicle daily for 28 of those days as described below.
Prior to initiation of the assay, each rat is allowed to acclimate to standard environmental conditions for 5 days. […]

In the case of `N[C@@H](Cc1cc(I)c(Oc2cc(I)c(O)c(I)c2)c(I)c1)C(=O)O` [T4, thyroxine], the “cardiac-sparing (index C = RT/RV, heart/body ratio of test compound group over vehicle control group)” value is reported as “not cardiac-sparing”.
